Reference: patent publication US8729076B2, “Secondary 8-hydroxyquinoline-7-carboxamide derivatives” (Polichem SA, priority 2009, dated 2014)
In brackets after ≈: the same amount, converted by molar mass. Read-outs that look alike come from different tables or passages of the source.

What was measured:
Assay type in all cases: cell-based
[1] = test system: 6 strains tested, including yeasts, dermatophytes and molds; assay: Antifungal spectrum over the 6 strains tested (MIC test); conditions: 6 strains: yeasts
Description: (§1) Trichophyton Rubrum (ATCC 28188, PBI International); Trichophyton Mentagrophytes (ATCC 9533, PBI International); Aspergillus Niger (ATCC 16404, PBI International); Scopulariopsis Brevicaulis (ATCC 36840, DSMZ); Candida Albicans (ATCC 90028, PBI International); Candida Glabrata (ATCC 90030, DSMZ).
(§2) Compounds' minimal inhibition concentration (MIC) was determined through broth micro-dilution susceptibility test using a method developed in agreement with the National Committee for Clinical Laboratory Standards (NCCLS) (National Committee for Clinical Laboratory Standards. Reference Method for Broth Dilution Antifungal Susceptibility Testing of Yeasts; Approved standard-Second Edition M27-A2. 2002; Vol. 22, No. 15) (National Committee for Clinical Laboratory Standards. Reference Method for Broth Dilution Antifungal Susceptibility Testing of Filamentous Fungi; Approved standard M38-A. 2002; Vol. 22, No. 16).
(§3) Assays were carried out in RPMI 1640 with L-glutamine medium buffered to pH 7 with 0.165M 3-(N-morpholino)propanesulfonic acid (MOPS) and 10M NaOH and supplemented with 18 g glucose/liter. The tests were performed using 96 well sterile plates (inoculum size of 1×10^5 CFU/mL). Compounds stock solutions were prepared at 12.8 mg/mL in 100% DMSO. A series of twofold dilutions were prepared in plate using RPMI 1640. Final concentrations ranged from 0.125 to 128 μg/mL at 1% DMSO.

[2] = test system: Aspergillus Niger (ATCC 16404); assay: Broth micro-dilution antifungal susceptibility test (MIC); conditions: ATCC16404, 120 h, 35° C.
Description: as §1, §2, §3

[3] = test system: Trichophyton Mentagrophytes (ATCC 9533); assay: as above; conditions: ATCC9533, 120 h, 35° C.
Description: as §1, §2, §3

[4] = test system: Scopulariopsis Brevicaulis (ATCC 36840); assay: as above; conditions: ATCC36840, 120 h, 35° C.
Description: as §1, §2, §3

[5] = test system: Trichophyton Rubrum (ATCC 28188); assay: as above; conditions: ATCC28188, 120 h, 35° C.
Description: as §1, §2, §3

[6] = test system: Candida Glabrata (ATCC 90030); assay: as above; conditions: Nakaseomyces glabratus, ATCC90030, 48 h, 35° C.
Description: as §1, §2, §3

[7] = test system: Candida Albicans (ATCC 90028); assay: as above; conditions: 35° C.
Description: as §1, §2, §3

[8] = test system: Candida Glabrata (ATCC 90030); assay: Assessment of the mechanism of action: antifungal activity with or without 100 μM Fe3+; conditions: 100 μM FeCl3 in the test medium; OD at 540 nm
Description: To verify if the compounds mechanism of action is the chelation of iron ions, the MIC determination with Candida glabrata (ATCC 90030) strain was performed by the addition of excessive iron ions (100 μM FeCl3) in the test medium. The viability of cells exposed to drugs, with or without the metal ion Fe^3+, was evaluated by the OD measure at 540 nm.
Compounds described in Example 2, E8 and NiK-29298 were evaluated in presence and in absence of 100 μM (100 micromoles) Fe^3+.
In all figures, the lines and dots represent the percent inhibition of the fungal growth (in ordinate) by adding different concentrations of antifungal agents (in abscissa). Blue lines and dots are the experiments performed without iron supplementation, while red lines and dots represent the results of the experiments performed in presence of 100 μM Fe^3+. […] Conversely, Fe^3+ has no effect on amphotericin, an antifungal agent known in the art to have a mechanism of action different from that of ciclopirox.

[9] = comparison compounds, Table 5, five days
[10] = comparison compounds, Table 5, five days, read-out: MIC Tricophyton Mentagrophytes ATCC 9533
[11] = comparison compounds, Table 5, five days, read-out: MIC Trycophyton Rubrum ATCC 28188
[12] = ATCC90028, comparison compounds, Table 5, 48 h
[13] = geometric means of two single experiments, five days, Table 3
[14] = geometric means of two single experiments, five days, Table 3, read-out: MIC Tricophyton Mentagrophytes ATCC 9533
[15] = geometric means of two single experiments, five days, Table 3, read-out: MIC Trycophyton Rubrum ATCC 28188
[16] = geometric means of two single experiments, Table 3
[17] = ATCC90028, geometric means of two single experiments, 48 h, Table 3

O=C(NCc1ccccc1)c1ccc2ncccc2c1 [NiK-29298, reference compound]
Spectrum of antifungal activity on the strains tested [1]: active only on yeasts | MIC [2, 9]: 64 to 128 µg/mL (≈ 244 to 488 µM) | MIC [3, 10]: 128 µg/mL (≈ 488 µM) | MIC [4, 9]: > 128 µg/mL | MIC [5, 11]: > 128 µg/mL | MIC ([6]; comparison compounds, Table 5): 5.65 µg/mL (≈ 21.5 µM) | MIC [7, 12]: 2 µg/mL (≈ 7.62 µM) | Effect of Fe3+ on antifungal activity [8]: not inhibited

O=C(NCc1nc2ccccc2s1)c1ccc2cccnc2c1O [Example 14, 8-Hydroxy-N-(benzo[d]thiazol-2-ylmethyl)quinoline-7-carboxamide]
MIC [2, 13]: 0.5 µg/mL (≈ 1.49 µM) | MIC [3, 14]: 1 µg/mL (≈ 2.98 µM) | MIC [4, 13]: 1 µg/mL (≈ 2.98 µM) | MIC [5, 15]: 2 µg/mL (≈ 5.96 µM) | MIC [6, 16]: 2.83 µg/mL (≈ 8.44 µM) | MIC [7, 17]: 2 µg/mL (≈ 5.96 µM)

O=C(Nc1ccc(-n2cncn2)cc1)c1ccc2cccnc2c1O [Example 7, 8-Hydroxy-N-(4-(1H-1,2,4-triazol-1-yl)phenyl)quinoline-7-carboxamide]
MIC [2, 13]: 1 µg/mL (≈ 3.02 µM) | MIC [3, 14]: 2 µg/mL (≈ 6.04 µM) | MIC [4, 13]: 1.26 µg/mL (≈ 3.8 µM) | MIC [5, 15]: 2.52 µg/mL (≈ 7.61 µM) | MIC [6, 16]: 2.83 µg/mL (≈ 8.54 µM) | MIC [7, 17]: 2 µg/mL (≈ 6.04 µM)

O=C(Nc1ccc2c(c1)OCCO2)c1ccc2cccnc2c1O [Example 9, 8-Hydroxy-N-(2,3-dihydrobenzo[b][1,4]dioxin-6-yl)quinoline-7-carboxamide]
MIC [2, 13]: 1 µg/mL (≈ 3.1 µM) | MIC [3, 14]: 0.5 µg/mL (≈ 1.55 µM) | MIC [4, 13]: 1 µg/mL (≈ 3.1 µM) | MIC [5, 15]: 0.25 µg/mL (≈ 0.776 µM) | MIC [6, 16]: 2 µg/mL (≈ 6.21 µM) | MIC [7, 17]: 2 µg/mL (≈ 6.21 µM)

C[C@@H]1[C@H](O)[C@@H](C)/C=C/C=C/C=C/C=C/C=C/C=C/C=C/[C@H](O[C@@H]2O[C@H](C)[C@@H](O)[C@H](N)[C@@H]2O)C[C@@H]2O[C@](O)(C[C@@H](O)C[C@@H](O)[C@H](O)CC[C@@H](O)C[C@@H](O)CC(=O)O[C@H]1C)C[C@H](O)[C@H]2C(=O)O [amphotericin]
Effect of Fe3+ on antifungal activity [8]: no effect

O=C(NCc1ccc(Br)cc1)c1ccc2cccnc2c1O [Example 2, 8-Hydroxy-N-(4-bromobenzyl)quinoline-7-carboxamide]
MIC [2, 13]: 0.71 µg/mL (≈ 1.99 µM) | MIC [3, 14]: 1 µg/mL (≈ 2.8 µM) | MIC [4, 13]: 1.41 µg/mL (≈ 3.95 µM) | MIC [5, 15]: 1.41 µg/mL (≈ 3.95 µM) | MIC [6, 16]: 1.41 µg/mL (≈ 3.95 µM) | MIC [7, 17]: 1.41 µg/mL (≈ 3.95 µM)

Cc1cc(C2CCCCC2)n(O)c(=O)c1 [ciclopirox]
Effect of Fe3+ on antifungal activity [8]: completely inhibited

CN(C)c1ccc(CNC(=O)c2ccc3cccnc3c2O)cc1 [Example 4, 8-Hydroxy-N-(4-(dimethylamino)benzyl)quinoline-7-carboxamide]
MIC [2, 13]: 0.5 µg/mL (≈ 1.56 µM) | MIC [3, 14]: 0.71 µg/mL (≈ 2.21 µM) | MIC [4, 13]: 1 µg/mL (≈ 3.11 µM) | MIC [5, 15]: 1 µg/mL (≈ 3.11 µM) | MIC [6, 16]: 1.41 µg/mL (≈ 4.39 µM) | MIC [7, 17]: 2.83 µg/mL (≈ 8.81 µM)

Cc1cc(CNC(=O)c2ccc3cccnc3c2O)no1 [Example 11, 8-Hydroxy-N-((5-methylisoxazol-3-yl)methyl)quinoline-7-carboxamide]
MIC [2, 13]: 1 µg/mL (≈ 3.53 µM) | MIC [3, 14]: 4 µg/mL (≈ 14.1 µM) | MIC [4, 13]: 2.83 µg/mL (≈ 9.99 µM) | MIC [5, 15]: 1 µg/mL (≈ 3.53 µM) | MIC [6, 16]: 2 µg/mL (≈ 7.06 µM) | MIC [7, 17]: 2 µg/mL (≈ 7.06 µM)

O=C(NCc1ccc(N2CCOCC2)cc1)c1ccc2cccnc2c1O [Example 10, 8-Hydroxy-N-(4-morpholinobenzyl)quinoline-7-carboxamide]
MIC [2, 13]: 0.5 µg/mL (≈ 1.38 µM) | MIC [3, 14]: 0.5 µg/mL (≈ 1.38 µM) | MIC [4, 13]: 4 µg/mL (≈ 11 µM) | MIC [5, 15]: 1 µg/mL (≈ 2.75 µM) | MIC [6, 16]: 2 µg/mL (≈ 5.5 µM) | MIC [7, 17]: 4 µg/mL (≈ 11 µM)

Cc1csc(CNC(=O)c2ccc3cccnc3c2O)n1 [Example 12, 8-Hydroxy-N-((4-methylthiazol-2-yl)methyl)quinoline-7-carboxamide]
MIC [2, 13]: 1 µg/mL (≈ 3.34 µM) | MIC [3, 14]: 2.83 µg/mL (≈ 9.45 µM) | MIC [4, 13]: 1 µg/mL (≈ 3.34 µM) | MIC [5, 15]: 1.41 µg/mL (≈ 4.71 µM) | MIC [6, 16]: 2 µg/mL (≈ 6.68 µM) | MIC [7, 17]: 2 µg/mL (≈ 6.68 µM)

O=C(NCc1ccccn1)c1ccc2cccnc2c1O [Example 1, 8-Hydroxy-N-(pyridin-2-ylmethyl)quinoline-7-carboxamide]
MIC [2, 13]: 0.5 µg/mL (≈ 1.79 µM) | MIC [3, 14]: 2 µg/mL (≈ 7.16 µM) | MIC [4, 13]: 1 µg/mL (≈ 3.58 µM) | MIC [5, 15]: 2 µg/mL (≈ 7.16 µM) | MIC [6, 16]: 4 µg/mL (≈ 14.3 µM) | MIC [7, 17]: 4 µg/mL (≈ 14.3 µM)

O=C(NCc1ccc(OCc2ccccc2)cc1)c1ccc2ncccc2c1 [Example E8, reference compound]
Spectrum of antifungal activity on the strains tested [1]: active only on yeasts | MIC [2, 9]: 2 to 128 µg/mL (≈ 5.43 to 347 µM) | MIC [3, 10]: 75 µg/mL (≈ 204 µM) | MIC [4, 9]: > 128 µg/mL | MIC [5, 11]: > 128 µg/mL | MIC ([6]; comparison compounds, Table 5): 1 µg/mL (≈ 2.71 µM) | MIC [7, 12]: 1.41 µg/mL (≈ 3.83 µM) | Effect of Fe3+ on antifungal activity [8]: not inhibited
